Experiment [1] has as its system pulmonary fibrosis induced by bleomycin. The experiment in a line: Inhibitory effect on pulmonary fibrosis induced by bleomycin in mice (Micro-CT, H&E and Masson's Trichrome staining, survival). The experiment is classed as in vivo. As to conditions: bleomycin sulfate 1.5 U/kg, male C57BL/6 mice; each drug 60 mg/kg orally once daily for two weeks starting 14 days after bleomycin; Micro-CT 4 weeks after bleomycin; compared to untreated group. The procedure:
Each drug was administered starting 14 days after the administration of bleomycin. The control drugs, nintedanib and pexidartinib (IM-1), were both administered at a dose of 60 mg/kg, and the co-administration group was orally administered nintedanib (60 mg/kg) with IM-1 (60 mg/kg) once daily for two weeks (a total of 13 administrations). Additionally, to analyze the degree of inflammatory response and the degree of fibrosis, H&E staining and Masson's Trichrome staining were performed. In addition, the mouse survival rate was compared in FIG. 3.

The test system of experiment [2] is radiation-induced pulmonary fibrosis. The experiment in a line: Inhibitory effect on radiation-induced pulmonary fibrosis in mice (Micro-CT, H&E and Masson's Trichrome staining). As to conditions: SBRT 90 Gy, 4 mm collimator, male C57BL/6 mice; each drug 60 mg/kg orally daily, starting one hour before irradiation; Micro-CT two weeks after radiation exposure; compared to untreated group. The experiment is classed as in vivo. The text has this:
Seven-week-old male C57BL/6 mice were divided into groups treated with IM-1, nintedanib, and the combination of the two drugs (IM-1 + nintedanib). One hour before stereotactic body radiation therapy (SBRT; 90 Gy, 4 mm collimator), the drugs were orally administered to the mice. The degree of pulmonary fibrosis and the inhibitory effect on radiation-induced lung injury were observed two weeks after radiation exposure. The IM-1 and nintedanib groups were each administered the respective drug daily at a dose of 60 mg/kg, and the combination group was administered both drugs daily at 60 mg/kg each. Additionally, to analyze the degree of inflammatory response and the degree of fibrosis, H&E staining and Masson's Trichrome staining were performed.

Take `FC(F)(F)c1ccc(CNc2ccc(Cc3c[nH]c4ncc(Cl)cc34)cn2)cn1` [IM-1, 5-((5-chloro-1H-pyrrolo[2,3-b]pyridin-3-yl)methyl)-N-((6-(trifluoromethyl)pyridin-3-yl)methyl)pyridin-2-amine]: the degree of fibrosis entry in experiment [1] and in experiment [2] was “a reduction in the degree of fibrosis” in each case.
For the compound `COC(=O)c1ccc2c(c1)NC(=O)/C2=C(\Nc1ccc(N(C)C(=O)CN2CCN(C)CC2)cc1)c1ccccc1` [nintedanib, methyl (3Z)-3-{[(4-{methyl[(4-methylpiperazin-1-yl)acetyl]amino}phenyl)amino](phenyl)methylidene}-2-oxo-2,3-dihydro-1H-indole-6-carboxylate], the degree of fibrosis result in experiment [1] and in experiment [2] was “a reduction in the degree of fibrosis” in each case.
